The values that follow come from US20040254189A1, “Jnk inhibitors” (priority 2001, published 2004).

By melting point is commonly meant the temperature of the solid-liquid transition.

Series [1] relates to TNF-α. In words: Increase in the amount of TNF-α in ear tissue of IgE-passively sensitized mouse after antigen (DNFB) stimulation. The class given is in vivo. The following applies: female BALB/c mice, p.o., eight hours after application of DNFB. On the procedure:
Female BALB/c mice were passively sensitized systemically by intravenous administration of 0.25 ml of a 20-fold diluted anti-DNP monoclonal antibody. On the following day, skin reactions were induced by applying 10 μl of a 0.15% dinitrofluorobenzene solution (DNFB diluted with a 4:1 mixture of acetone and olive oil) to each side of both ears of mice. Eight hours after the application of DNFB, both ears were cut off and homogenized in 400 μl of PBS using Polytron and then centrifuged (15,000 rpm, 15 minutes, 4° C.). The resulting supernatant was used as a sample. The amount of TNF-α was determined using a commercially available ELISA kit. The amount of proteins in the sample was also determined, and the amount of TNF-α was calculated per mg of protein. A preliminary test was performed in which an auricle sample was taken at certain intervals after the application of the antigen, and a time course of the amount of TNF-α was observed. The drug was orally administered one hour before the application of DNFB.

Series [2] relates to peritoneal mast cells. The experiment in a line: Antigen stimulation-induced release of TNF-α from peritoneal mast cells of passively sensitized rat. The class given is cell-based. The settings on record: 10^−9 to 10^−5 mol/l, 60 minutes preincubation, two hours after DNP-BSA. On the procedure:
Female Wistar rats were intraperitoneally administered 2 ml of an anti-DNP-IgE antibody (diluted 250-fold), and killed by exsanguination after 48 hours. 20 ml of a physiological mast cells medium (MCM) was injected into the abdominal cavity, and the lavage was recovered. The lavage was centrifuged at 50×g for seven minutes at 4° C. and then washed twice with MCM. Cells were suspended in 1 ml of a heparin-free MCM at a concentration of 1.25×10^5 cells/mL, and then CaCl2 was added (at a final concentration of 1 mmol/L). The resulting mixture was incubated with Compound A or DMSO (at a final concentration of 0.1%) at 37° C. for 60 minutes, and then DNP-BSA (at a final concentration of 30 ng/mL) was added, and further incubation was performed for two hours. Thereafter, the supernatant was harvested and stored at −40° C. until the amount of TNF-A was measured. The amount of TNF-α was determined using a commercially available ELISA kit.

Series [3] has as its system JNK (JNK1 and JNK2). The experiment in a line: Western blot analysis of activated site-specific phosphorylation of JNK in passively sensitized RBL-2H3 cells after antigen stimulation. The class given is cell-based, rat. On the procedure:
(§1) Rat basophilic leukemia 2H3 (RBL-2H3) cells (JCRB0023 from Health Science Research Resources Bank) were seeded in a 6-well plate or a 60 mm dish (0.5×10^6 cells/ml) and sensitized with the anti-DNP-IgE antibody (1:2000) at 37° C. for 90 minutes, and then washed twice with a glucose/PIPES buffer. After the RBL-2H3 cells were incubated at 37° C. for 15 minutes in the presence of Compound A or DMSO (at a final concentration of 0.1%), DNP-BSA (at a final concentration of 3 ng/ml) was added, and further incubation was performed for 10 minutes. The cells were then washed twice with PBS on ice, the cells were harvested with a scraper in a cell extraction buffer for western blot analysis or kinase assay, and incubated on ice for 15 minutes, and centrifuged (14,500 rpm, 4° C., 15 minutes). The resulting supernatant was recovered.
(§2) Western Blot Analysis: The supernatant of the total protein extracted from the cells was separated by 10% SDS-PAGE. The proteins and phosphorylated proteins were detected by a chemiluminescence technique using an anti-PLCγ-1[pY783] phosphospecific antibody, an anti-PLCγ antibody, an anti-active JNK (pTPpY) antibody, an anti-phospho-MAPK (ERK1/2)(Thr202/[…]) antibody, an anti-phospho-p38MAPK (Thr180/Tyr182) antibody, an anti-p44/42MAP kinase antibody, and an anti-JNK antibody.
For orientation: In western blotting, separated proteins are transferred to a membrane and probed.

Series [4] concerns PLCγ. The experiment in a line: Western blot analysis of activated site-specific phosphorylation of PLCγ in passively sensitized RBL-2H3 cells after antigen stimulation. The class given is cell-based, rat. The settings on record: ten minutes after antigen stimulation. On the procedure:
as §1, §2

Series [5] deals with ERKs. In words: Western blot analysis of activated site-specific phosphorylation of ERKs in passively sensitized RBL-2H3 cells after antigen stimulation. The class given is cell-based, rat. The following applies: ten minutes after antigen stimulation. On the procedure: as §1, §2
Series [6] has as its system p38MAPK. The experiment in a line: Western blot analysis of activated site-specific phosphorylation of p38MAPK in passively sensitized RBL-2H3 cells after antigen stimulation. The class given is cell-based, rat. The settings on record: ten minutes after antigen stimulation. On the procedure:
as §1, §2

Series [7] deals with JNK. In words: JNK kinase assay on protein extract of treated RBL-2H3 cells with c-Jun(1-89) as substrate. The class given is cell-based, rat. The settings on record: 10^−5 to 10^−7 mol/l. On the procedure: as §1
JNK Kinase Assay: The total protein extracted from the cells (250 μg) was incubated for 12 hours with gentle rocking with GST-c-Jun(1-89) sepharose beads (2 μg) at 4° C. After washing, a kinase buffer was used for replacement. ATP ([…]) was added to start the kinase reaction. After incubation was performed at 30° C. for 30 minutes, 10% SDS-PAGE was used for separation. The phosphorylated GST-c-Jun(1-89) was detected by a chemiluminescence technique using an anti-phospho-c-Jun antibody.

The test system of series [8] is RBL-2H3 cells. The experiment in a line: Western blot analysis of protein expression amount in RBL-2H3 cells. The class given is cell-based, rat. The following applies: treatment with Compound A. On the procedure: as §1, §2

With `O=C(O)/C=C/C(=O)O.c1ccc(C(OC2CCN(CCCCCCOc3ccc4nncn4n3)CC2)c2ccccc2)cc1`, the melting point was in the range of 144 to 146 °C.

For the compound `CC(C)(C(=O)O)n1nc2ccc(NCCCN3CCC(OC(c4ccccc4)c4ccccc4)CC3)nn2c1=O` (hydrate or solvate), the melting point lay within 181 to 185 °C.

`c1ccc(C(OC2CCN(CCCCCCNc3ccc4nncn4n3)CC2)c2ccccc2)cc1` (hydrate or solvate) had a melting point of 124 to 127 °C.

Compound `c1ccc(C(OC2CCN(CCCNc3ccc4ncnn4n3)CC2)c2ccccc2)cc1` showed a melting point of 136 to 138 °C.

With `CC(C)(C)C(=O)OCOC(=O)C(C)(C)n1nc2ccc(NCCCN3CCC(OC(c4ccccc4)c4ccccc4)CC3)nn2c1=O`, the melting point was 162 °C.

The compound `CCOC(=O)C(C)(C)n1nc2ccc(NCCCN3CCC(OC(c4ccccc4)c4ccccc4)CC3)nn2c1=O.Cl` registered a melting point of 162 °C.

As to `CCOC(=O)c1nnc2ccc(NCCCN3CCC(OC(c4ccccc4)c4ccccc4)CC3)nn12` (hydrate or solvate), the melting point fell in the range of 129 to 133 °C.

The compound `CC(C)(C(=O)O)c1cn2nc(NCCCN3CCC(OC(c4ccccc4)c4ccccc4)CC3)ccc2n1.O.O` (hydrate or solvate) [Compound A, 2-[6-[3-[4-(diphenylmethoxy)piperidino]propylamino]imidazo[1,2-b]pyridazin-2-yl]-2-methylpropionic acid dihydrate] came in with a melting point of 203 to 205 °C.

With `CC(C)(C)c1nnc2ccc(OCCCN3CCC(OC(c4ccccc4)c4ccccc4)CC3)nn12`, the melting point lay in the range of 125 to 127 °C.

`CC(C)(C(=O)O)c1cn2nc(NCCCN3CCC(OC(c4ccccc4)c4ccccc4)CC3)ccc2n1` displayed a melting point of 205 to 206 °C.

`CCOC(=O)CNC(=O)c1cn2nc(NCCCN3CCC(OC(c4ccccc4)c4ccccc4)CC3)ccc2n1.Cl.Cl`: the melting point was found to be 205 °C.

For the compound `O=c1[nH]nc2ccc(NCCCN3CCC(OC(c4ccccc4)c4ccccc4)CC3)nn12` (hydrate or solvate), the melting point is 156 to 170 °C.

The compound `O=C(O)c1nnc2ccc(NCCCN3CCC(OC(c4ccccc4)c4ccccc4)CC3)nn12` (hydrate or solvate) had a melting point of 102 to 104 °C.

As for `CCOC(=O)C(C)(C)c1cn2nc(NCCCN3CCC(NC(c4ccccc4)c4ccccc4)CC3)ccc2n1`, the melting point fell in the range of 115 to 117 °C.

For the compound `CC(C)(C(=O)O)c1cn2nc(NCCCN3CCC(OC(c4ccccc4)c4ccccc4)CC3)ccc2n1.O.O` [Compound A, 2-[6-[3-[4-(diphenylmethoxy)piperidino]propylamino]imidazo[1,2-b]pyridazin-2-yl]-2-methylpropionic acid dihydrate], in [1] (0.1 to 10 mg/kg, one hour before DNFB), the “effect on the increase in the amount of TNF-α in ear tissue” value is listed as “inhibited the increase in the amount of TNF-α in a dose-dependent manner”. The “dose with significant inhibition of the increase in the amount of TNF-α” value in series [1] (p<0.01 vs. control (Dunnett)) is ≥ 1 mg/kg. Besides, in series [2], the “effect on antigen stimulation-induced release of TNF-α” value is “inhibited the antigen stimulation-induced release of TNF-α in a concentration-dependent manner”. The “effect on specific phosphorylation of JNK (JNK1 and JNK2)” value in [3] (10^−5 to 10^−7 mol/l, ten minutes after antigen stimulation) was “inhibited the specific phosphorylation of JNK (JNK1 and JNK2) in a dose-dependent manner”. Further, in [3] (versus PLCγ, ERKs, p38MAPK in RBL-2H3 cells), the “selectivity for JNK activation among cascades activated depending on IgE” value is “selectively inhibits the activation of JNK”. Besides, in series [4], the “influence on activated site-specific phosphorylation of PLCγ” value is “no influence”. Besides, the “influence on activated site-specific phosphorylation of ERKs” value in series [5] was “no influence”. In series [6], the “influence on activated site-specific phosphorylation of p38MAPK” value is given as “no influence”. Moreover, the “JNK activity of protein extract on c-Jun(1-89) substrate” value in series [7] is on record as “inhibited depending on the concentration”. The “expression amount of any other protein” value in series [8] is listed as “not influenced”.

In turn, `Cc1c(C(C)(C)C(=O)O)nc2ccc(NCCCN3CCC(OC(c4ccccc4)c4ccccc4)CC3)nn12` registered a melting point of 219 to 220 °C.
